The values below come from ChEMBL document CHEMBL4417631, “Oral peptide inhibitors of interleukin-23 receptor and their use to treat inflammatory bowel diseases” (2017).

Structures are written as SMILES. Where a SMILES comes first, the peptide text is derived from it.

This assay addresses T1, Interleukin-23 receptor (Homo sapiens, UniProt Q5VWK5).
T1 sequence (Q5VWK5 whole entry): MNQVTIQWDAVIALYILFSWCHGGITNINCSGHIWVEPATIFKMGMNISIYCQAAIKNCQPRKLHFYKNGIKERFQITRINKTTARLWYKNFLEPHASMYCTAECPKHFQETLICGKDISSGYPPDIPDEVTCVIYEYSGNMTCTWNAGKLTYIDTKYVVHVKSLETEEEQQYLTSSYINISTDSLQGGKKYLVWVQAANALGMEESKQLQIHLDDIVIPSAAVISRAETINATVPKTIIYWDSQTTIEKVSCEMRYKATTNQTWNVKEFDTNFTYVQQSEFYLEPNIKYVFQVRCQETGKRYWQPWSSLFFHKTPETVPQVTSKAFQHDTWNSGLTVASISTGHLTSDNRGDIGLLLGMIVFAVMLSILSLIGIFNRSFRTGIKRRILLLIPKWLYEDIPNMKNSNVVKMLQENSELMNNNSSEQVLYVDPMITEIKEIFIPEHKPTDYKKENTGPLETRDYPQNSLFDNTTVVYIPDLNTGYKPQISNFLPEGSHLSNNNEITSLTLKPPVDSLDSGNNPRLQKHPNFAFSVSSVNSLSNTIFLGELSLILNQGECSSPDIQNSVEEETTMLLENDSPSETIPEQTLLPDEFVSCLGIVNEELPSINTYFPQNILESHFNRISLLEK
As to the kind of experiment: Inhibition of interleukin-23 binding to human interleukin-23 receptor incubated for 2 hrs by competitive binding ELISA.
With `CC(=O)N[C@@H](CS)C(=O)N[C@@H](C)C(=O)N[C@@H](CC(=O)O)C(=O)N[C@@H](Cc1c[nH]c2ccccc12)C(=O)N[C@H](C(=O)N[C@@H](CS)C(=O)N[C@@H](Cc1ccc(O)cc1)C(=O)N[C@@H](Cc1cccc2ccccc12)C(=O)N[C@@H](Cc1cnc[nH]1)C(=O)N[C@H](C)C(=O)N[C@@H](Cc1ccccc1)C(=O)NCC(N)=O)C(C)C`, the IC50 (in general, the concentration at which inhibition is half-maximal) was over 1000 nM. To `CC(=O)N[C@@H](CS)C(=O)N[C@@H](C)C(=O)N[C@@H](CC(=O)O)C(=O)N[C@@H](Cc1c[nH]c2ccccc12)C(=O)N[C@H](C(=O)N[C@@H](CS)C(=O)N[C@@H](Cc1ccc(O)cc1)C(=O)N[C@@H](Cc1c[nH]c2ccccc12)C(=O)N[C@@H](Cc1cnc[nH]1)C(=O)N[C@H](C(=O)N[C@@H](Cc1ccccc1)C(=O)NCC(=O)N[C@@H](CC(=O)O)C(=O)N[C@@H](CCCCNC(=O)COCC(=O)NCCCC[C@H](NC(=O)[C@H](CC(=O)O)NC(=O)CNC(=O)[C@H](Cc1ccccc1)NC(=O)[C@@H](NC(=O)[C@H](Cc1cnc[nH]1)NC(=O)[C@H](Cc1c[nH]c2ccccc12)NC(=O)[C@H](Cc1ccc(O)cc1)NC(=O)[C@H](CS)NC(=O)[C@@H](NC(=O)[C@H](Cc1c[nH]c2ccccc12)NC(=O)[C@H](CC(=O)O)NC(=O)[C@H](C)NC(=O)[C@H](CS)NC(C)=O)C(C)C)[C@@H](C)O)C(=O)O)C(=O)O)[C@@H](C)O)C(C)C` belongs 1000 to 10000 nM; to `C[C@@H](O)[C@H](NC(=O)[C@H](CCC(N)=O)NC(=O)[C@@H](N)CS)C(=O)N[C@@H](Cc1c[nH]c2ccccc12)C(=O)N[C@@H](CCC(N)=O)C(=O)N[C@@H](CS)C(=O)N[C@@H](Cc1ccc(O)cc1)C(=O)N1Cc2ccccc2C[C@H]1C(=O)N[C@@H](CCCN)C(=O)N[C@@H](CCCCN)C(=O)N[C@@H](Cc1ccccc1)C(=O)NCC(=O)NCCOCC(=O)N[C@H](CCCCN)C(N)=O`, over 30000 nM. To `CC(=O)N[C@@H](CS)C(=O)N[C@@H](C)C(=O)N[C@@H](CC(=O)O)C(=O)N[C@@H](Cc1c[nH]c2ccccc12)C(=O)N[C@H](C(=O)N[C@@H](CS)C(=O)N[C@@H](Cc1ccc(O)cc1)C(=O)N[C@@H](Cc1c[nH]c2ccccc12)C(=O)N[C@@H](Cc1cnc[nH]1)C(=O)N[C@H](C(=O)N[C@@H](Cc1ccccc1)C(=O)NCC(=O)NCCCC(=O)N[C@H](CCCCN)C(=O)O)[C@@H](C)O)C(C)C` belongs under 500 nM; to `CC(=O)N[C@@H](C)C(=O)N[C@@H](CS)C(=O)N[C@@H](CC(=O)O)C(=O)N[C@@H](Cc1c[nH]c2ccccc12)C(=O)N[C@H](C(=O)N[C@H](C(=O)N[C@@H](Cc1ccc(O)cc1)C(=O)N[C@@H](Cc1c[nH]c2ccccc12)C(=O)N[C@@H](CCCNC(=N)N)C(=O)N[C@@H](CCCCN)C(=O)N[C@@H](Cc1ccccc1)C(=O)NCC(=O)NCCOCC(=O)N[C@H](CCCCN)C(N)=O)C(C)(C)S)C(C)C`, 1000 to 10000 nM; to `CC(=O)N[C@@H](CS)C(=O)N[C@@H](CCC(N)=O)C(=O)N[C@H](C(=O)N[C@@H](Cc1c[nH]c2ccccc12)C(=O)N[C@@H](CCC(N)=O)C(=O)N[C@@H](CS)C(=O)N[C@@H](Cc1ccc(O)cc1)C(=O)N[C@@H](Cc1ccc(Cl)c(Cl)c1)C(=O)N[C@@H](CCCNC(=N)N)C(=O)N[C@H](C(=O)N[C@@H](CC(N)=O)C(=O)NCC(=O)NCCOCC(=O)N[C@H](CCCCN)C(N)=O)C(C)C)[C@@H](C)O`, over 30000 nM. For `CC(=O)N[C@@H](CS)C(=O)N[C@@H](CCCNC(=N)N)C(=O)N[C@H](C(=O)N[C@@H](Cc1c[nH]c2ccccc12)C(=O)N[C@@H](CCC(N)=O)C(=O)N[C@@H](CS)C(=O)N[C@@H](Cc1ccc(O)cc1)C(=O)N[C@@H](Cc1c[nH]c2ccccc12)C(=O)N[C@@H](Cc1cnc[nH]1)C(=O)N[C@@H](CCC(=O)O)C(=O)N[C@@H](Cc1ccc(O)cc1)C(=O)NCC(N)=O)[C@@H](C)O` (Ac-CRTWQCYWHEYG-NH2), the IC50 is under 500 nM. In the case of `CC(C)[C@H](NC(=O)[C@H](Cc1c[nH]c2ccccc12)NC(=O)[C@H](CC(=O)O)NC(=O)[C@H](C)NC(=O)[C@@H](N)CS)C(=O)N[C@@H](CS)C(=O)N[C@@H](Cc1ccc(O)cc1)C(=O)N[C@@H](Cc1cccc2ccccc12)C(=O)N[C@@H](Cc1cnc[nH]1)C(=O)N[C@H](C(=O)N[C@@H](Cc1ccccc1)C(=O)N(C)CC(=O)O)[C@@H](C)O` it was over 1000 nM; in that of `CC(=O)N[C@@H](CS)C(=O)N[C@@H](C)C(=O)N[C@@H](CC(=O)O)C(=O)N[C@@H](Cc1c[nH]c2ccccc12)C(=O)N[C@H](C(=O)N[C@@H](CS)C(=O)N[C@@H](Cc1ccc(O)cc1)C(=O)N[C@@H](Cc1c[nH]c2ccccc12)C(=O)N[C@@H](Cc1cnc[nH]1)C(=O)N[C@H](C(=O)N[C@@H](Cc1ccccc1)C(=O)NCC(=O)N1CCC[C@H]1C(=O)N[C@H](CCCCN)C(=O)O)[C@@H](C)O)C(C)C`, under 500 nM. To `CC(=O)N[C@@H](CS)C(=O)N[C@@H](CCC(N)=O)C(=O)N[C@H](C(=O)N[C@@H](Cc1c[nH]c2ccccc12)C(=O)N[C@@H](CCC(N)=O)C(=O)N[C@@H](CS)C(=O)N[C@@H](Cc1ccc(O)cc1)C(=O)N[C@@H](Cc1c[nH]c2ccccc12)C(=O)N[C@@H](CCCNC(=N)N)C(=O)N[C@@H](CCCCN)C(=O)N[C@@H](CC(N)=O)C(=O)NCC(=O)NCCOCC(=O)N[C@H](CCCCN)C(N)=O)[C@@H](C)O` belongs under 500 nM; to `CC(=O)N[C@H](C(=O)N[C@@H](CCC(N)=O)C(=O)N[C@H](C(=O)N[C@@H](Cc1c[nH]c2ccccc12)C(=O)N[C@@H](CCC(N)=O)C(=O)N[C@H](C(=O)N[C@@H](Cc1ccc(C#N)cc1)C(=O)N[C@@H](Cc1ccc2ccccc2c1)C(=O)N[C@@](C)(CCCN)C(=O)N[C@@H](CCC(=O)O)C(=O)N[C@@H](CC(N)=O)C(=O)NCC(N)=O)C(C)(C)S)[C@@H](C)O)C(C)(C)S`, 100 to 1000 nM; to `CC(C)[C@H](NC(=O)[C@@H]1Cc2ccccc2CN1C(=O)[C@H](CC(=O)O)NC(=O)[C@H](C)NC(=O)[C@@H](N)CS)C(=O)N[C@@H](CS)C(=O)N[C@@H](Cc1ccc(O)cc1)C(=O)N[C@@H](Cc1c[nH]c2ccccc12)C(=O)N[C@@H](Cc1cnc[nH]1)C(=O)N[C@H](C(=O)N[C@@H](Cc1ccccc1)C(=O)NCC(N)=O)[C@@H](C)O`, over 1000 nM. In turn, `CC(=O)N[C@@H](CS)C(=O)N[C@@H](C)C(=O)N[C@@H](CC(=O)O)C(=O)N[C@@H](Cc1c[nH]c2ccccc12)C(=O)N[C@H](C(=O)N[C@@H](CS)C(=O)N[C@@H](Cc1ccc(O)cc1)C(=O)N[C@@H](Cc1c[nH]c2ccccc12)C(=O)N[C@@H](Cc1cnc[nH]1)C(=O)N[C@H](C(=O)N[C@@H](Cc1ccccc1)C(=O)NCC(=O)N[C@@H](C)C(=O)N[C@@H](C)C(=O)N[C@H](CCCCN)C(=O)O)[C@@H](C)O)C(C)C` returned an IC50 of under 500 nM. To `CC(=O)NC1CCC/C=C\CCC(C(=O)N[C@@H](Cc2ccc(O)cc2)C(=O)N[C@@H](Cc2c[nH]c3ccccc23)C(=O)N[C@@H](CCCNC(=N)N)C(=O)N[C@@H](CCCCN)C(=O)N[C@@H](Cc2ccccc2)C(=O)NCC(=O)NCCOCC(=O)N[C@H](CCCCN)C(N)=O)NC(=O)[C@H](CCC(N)=O)NC(=O)[C@H](Cc2c[nH]c3ccccc23)NC(=O)[C@H]([C@@H](C)O)NC(=O)[C@H](CCCNC(=N)N)NC1=O` (some centres undefined) belongs 1000 to 10000 nM. To `CC(=O)N[C@@H](CS)C(=O)N[C@@H](C)C(=O)N[C@@H](CC(=O)O)C(=O)N[C@@H](Cc1c[nH]c2ccccc12)C(=O)N[C@H](C(=O)N[C@@H](CS)C(=O)N[C@@H](Cc1ccc(O)cc1)C(N)=O)C(C)C` belongs over 30000 nM; to `CC(=O)N[C@@H](CS)C(=O)N[C@@H](C)C(=O)N[C@@H](CC(=O)O)C(=O)N[C@@H](Cc1c[nH]c2ccccc12)C(=O)N[C@H](C(=O)N[C@@H](CS)C(=O)N[C@@H](Cc1ccc(O)cc1)C(=O)N[C@@H](Cc1ccc(-c2ccccc2)cc1)C(=O)N[C@@H](Cc1cnc[nH]1)C(=O)N[C@H](C(=O)N[C@@H](Cc1ccccc1)C(=O)NCC(=O)NCCOCC(=O)N[C@H](CCCCN)C(N)=O)[C@@H](C)O)C(C)C`, over 1000 nM. In the case of `CC(C)[C@H](NC(=O)[C@H](Cc1c[nH]c2ccccc12)NC(=O)[C@H](CC(=O)O)NC(=O)[C@H](C)NC(=O)[C@@H](N)CS)C(=O)N[C@@H](CS)C(=O)N[C@@H](Cc1ccc(O)cc1)C(=O)N[C@@H](Cc1c[nH]c2ccccc12)C(=O)N[C@@H](Cc1cnc[nH]1)C(=O)N[C@H](C(=O)N[C@@H](Cc1ccccc1)C(N)=O)[C@@H](C)O` it was over 1000 nM; in that of `C[C@@H](O)[C@H](NC(=O)[C@H](CC(=O)O)NC(=O)[C@@H](N)CS)C(=O)N[C@@H](Cc1c[nH]c2ccccc12)C(=O)N[C@@H](CCCCN)C(=O)N[C@@H](CS)C(=O)N[C@@H](Cc1ccc(O)cc1)C(=O)N[C@@H](Cc1c[nH]c2ccccc12)C(=O)N[C@@H](Cc1cnc[nH]1)C(=O)N[C@@H](CCCNC(=N)N)C(=O)N[C@@H](CCC(N)=O)C(=O)N[C@@H](CO)C(N)=O` (H-CDTWKCYWHRQS-NH2), 500 to 1000 nM; in that of `CC(=O)N[C@@H](CS)C(=O)N[C@@H](C)C(=O)N[C@@H](CC(=O)O)C(=O)N[C@@H](Cc1c[nH]c2ccccc12)C(=O)N[C@H](C(=O)N[C@@H](CS)C(=O)N[C@@H](Cc1ccc(O)cc1)C(=O)N[C@@H](Cc1cccc2ccccc12)C(=O)N[C@@H](Cc1cnc[nH]1)C(=O)N[C@H](C(=O)N[C@@H](Cc1ccccc1)C(=O)NC(C)(C)C(N)=O)[C@@H](C)O)C(C)C`, over 1000 nM.
